Measured values reported in patent US20200129523A1, “SHIP INHIBITION TO INDUCE EXPRESSION OF GRANULOCYTE COLONY STIMULATING FACTOR IN A SUBJECT” (THE RESEARCH FOUNDATION FOR THE STATE UNIVERSITY OF NEW YORK, priority 2014, published 2020).

Legend:
[1] = system: HSC; test: CRU assay (competitive repopulating units), primary and secondary; assay type: in vivo, mice
Procedure: CD45.1^+45.2^+-recipient mice were given a split dose of 550 Rads (x-ray source, RS2000-RAD source technologies, inc.) 4 hours apart for a lethal total dose of 1100 Rads. WBM (5×10^5) cells from 3AC (CD45.2) treated mice were competed with WBM cells from vehicle (CD45.1) treated mice and injected retro-orbitally into CD45.1^+45.2^+ hosts. PBMC multi-lineage reconstitution was evaluated every month post-transplant for 4 months. Transplanted mice were euthanized and serially transplanted to determine self-renewal capacity. Repopulating Units (RU) determination was previously decribed.^15 Briefly, RU=(C×CD45.2 repopulation %)/(100−CD45.2 repopulation %) where C=10^5 competitor cells.^6
Normal Repopulating units (RU) are calculated based on total number of competitor cells transplanted. Due to the expansion in the bone marrow compartment of SHIPi treated mice, we calculated the absolute RU numbers based on RU output determined by CRU assay and total BM cellularity. Total BM cellularity was determined via hemacytometer (BioRAD, TC20 cell counter) based on a total BM cells obtained from an intact set of femurs and tibias for each mouse in the study. Absolute RU=(Total BM cellularity/5×10^5)×RU.

[2] = system: HSC compartment; test: Flow cytometric quantitation of hematopoietic stem/progenitor populations and cellularity in bone marrow of treated mice; assay type: in vivo, C57BL/6NTac mice; settings: K118 10 mg/kg i.p. 5 days, vs H2O
Procedure: HSC phenotype, cell-cycle progression, G-CSF neutralization, and CXCR4 MFI determination by FACS analysis was performed on whole bone marrow (WBM) cells harvested from a tibia and femur pair obtained from SHIPi and vehicle treated 8-12 week old male C57BL/6NTac mice (Taconic). Generation of the CD45.1×CD45.2 strain utilized in the CRU assay were obtained by intercrossing C57BL6/J (CD45.2) and B6.SJL (CD45.1), as previously described.^5 The SUNY Upstate Medical University Committee for Humane Use of Animals approved all animal experiments.
In vivo administration of 3AC was previously described.^14 Briefly, 3AC is resuspended as an emulsion in 0.3% Klucel/H20. Mice were treated via intraperitoneal injection every 24 hrs for 5 days at a final concentration of 26.5 mg/kg. Analysis and transplants were performed on day 6. The 3AC derivative K118 (Soluble SHIPi) was suspended in pure H2O and heated at 100° C. for ˜15 min to allow the compound to enter solution. The delivery method was the same as with 3AC, however, the mice were treated for 5 days at a final concentration of 10 mg/kg. Vehicle cohorts for 3AC were treated with 0.3% Klucel/H20 and K118 were treated with pure H2O.
Cell isolation was performed according to method detailed in Hazen et al.^6 Briefly, WBM was flushed from both femurs and tibias per mouse with a 25-gauge needle, red blood cell lysed (eBioscience), and resuspended in staining media comprised of Hanks Buffered Saline Solution (HBSS), 2% heat inactivated fetal bovine serum (FBS), and 10 mM HEPES (Sigma). The cells harvested for the CRU assay were flushed, red blood cell lysed, washed, and resuspended in sterile phosphate buffered saline (PBS). Peripheral blood mononuclear cells (PBMC) were collected via submandibular bleed in EDTA Micorvette tubes (SARSTEDT).
All antibodies were from BD Biosciences or eBioscience. All WBM, PBMC and BM derived MSC cell populations were Fc blocked on ice for 10 min prior to antibody staining. Global reconstitution was determined by staining PBMC with CD45.1-PeCy7 and CD45.2-APC. Multi-lineage repopulation was determined by staining PBMC with CD3-FITC (145-2C11), CD19-PerCP5.5 (1D3), Mac1-PE (M1/70), Gr1-Alexa700 (RB6-8C5) and NK1.1-APC-Cy7 (PK136). The Lin−cKit+Sca1+CD34−Flk2− (LSKF34−) phenotype was utilized to determine frequency of LT-HSC, ST-HSC, and MPP; the stain was comprised of Lin-PerCP 5.5, cKit-APC (2B8), Sca1-PeCy7 (D7), CD34-FITC (RAM34), Flk2-PE (A2F10). LSKF-CXCR4 stain was used to determine surface expression of the homing marker CXCR4. All cells were washed twice with staining media, resuspended in staining media plus DAPI for dead cell exclusion, and then analyzed on a flow cytometer LSRII (BD Biosciences). All flow cytometry data was analyzed using FlowJo (9.4.3) software.

[3] = system: MSC (CFU-F); test: Colony forming unit (CFU-F) assay on BM cells of treated mice; assay type: in vivo; settings: K118 10 mg/kg i.p. 5 days, vs H2O
Procedure: Primary whole BM cells (adherent+non-adherent) were plated in 60-mm plates (triplicates, 3×10^6 cells per plate) in CFU-F growth media: DMEM, Mesencult Serum (Stem Cell Technologies) with 1% penicillin-streptomycin-glutamine. Cells were cultured for approximately 7 days, after which cells were fixed with 70% ethanol and stained for alkaline phosphatase activity using the Leukocyte Alkaline Phosphatase Kit (Sigma) and counter-stained with neutral red (Sigma). Colonies (ALP^+ cells/colonies) were counted using the Software program “Image J” (National Institutes of Health Research Services Branch).

[4] = system: immunoregulatory cells; test: Preliminary oral K118 study: immunoregulatory cells; assay type: in vivo, wt C57BL/6 mice; settings: K118 orally 10 mg/kg in water
Procedure: K118 was administered in water, and in wt C57BL/6 mice.

Q: What does the source list for `C[C@@]12CCC[C@H]1[C@@H]1CC[C@H]3C[C@@H](N)CC[C@]3(C)[C@H]1CC2.Cl` [K118, 3β-amino-5α-androstane hydrochloride]?
A: absolute CRU numbers ([1]; K118 treated vs H2O treated donors): significant increase; CRU activity ([1]; primary CRU, WBM of K118 treated vs H2O treated mice): significant increase; BM cellularity [2]: significant increase; LT-HSC in BM [2]: significant increases; MPP in BM [2]: significant increases; ST-HSC in BM [2]: significant increases; frequency of CFU-F in BM [3]: significantly increased frequency; neutrophil numbers [4]: trend for increased; frequency of natural T regulatory cells (nTreg, CD4+CD25+FoxP3+) ([4]; mesenteric lymph node (mLN)): Significant increases; frequency of myeloid derived suppressor cells (MDSC, Gr1+Mac1+) ([4]; spleen): significant increase; frequency of natural T regulatory cells (nTreg, CD4+CD25+FoxP3+) ([4]; spleen): Significant increases
